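In this assay, cells in 96-well plates receive the compound at five concentrations for 48 hours. Endpoints are linearly interpolated between the surrounding concentrations. Here, GI50 denotes the concentration required for 50% inhibition of growth.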 The source made the active and inactive calls. Cut-off read from the data, not from the text of the source: active = GI50 up to about 1.1 µM and inactive = higher.
How the values were obtained:
Experiment in all cases: NCI-60 cell line screen, 48 h
HL-60 = system: HL-60
LOX IMVI = system: LOX IMVI
OVCAR-5 = system: OVCAR-5
MDA-MB-435 = system: MDA-MB-435
CAKI-1 = system: CAKI-1
HOP-62 = system: HOP-62
K562 = system: K562
RXF 393 = system: RXF 393
NCI/ADR-RES = system: NCI/ADR-RES
SF-295 = system: SF-295
NCI-H460 = system: NCI-H460
IGROV-1 = system: IGROV-1
M14 = system: M14
NCI-H522 = system: NCI-H522
UO-31 = system: UO-31
SW-620 = system: SW-620
BT-549 = system: BT-549
U-251 = system: U-251
Hs-578T = system: Hs-578T

Measured: GI50

O=C1CNc2cc(N3CCOCC3)ccc2N1
inactive: HL-60 > 100 µM | LOX IMVI > 100 µM | OVCAR-5 > 100 µM | MDA-MB-435 > 100 µM | CAKI-1 > 100 µM | HOP-62 > 100 µM | K562 > 100 µM | RXF 393 > 100 µM | NCI/ADR-RES > 100 µM | SF-295 > 100 µM | NCI-H460 > 100 µM | IGROV-1 > 100 µM | M14 > 100 µM | NCI-H522 > 100 µM | UO-31 > 100 µM | SW-620 > 100 µM | BT-549 > 100 µM | U-251 > 100 µM | Hs-578T 57.3 µM

CCOc1cnc(C(O)(c2ccccc2)c2ccccc2)o1
inactive: HL-60 > 100 µM | LOX IMVI 69.7 µM | OVCAR-5 > 100 µM | MDA-MB-435 > 100 µM | CAKI-1 > 100 µM | HOP-62 > 100 µM | K562 > 100 µM | RXF 393 > 100 µM | NCI/ADR-RES > 100 µM | SF-295 > 100 µM | NCI-H460 > 100 µM | IGROV-1 > 100 µM | M14 > 100 µM | NCI-H522 > 100 µM | UO-31 > 100 µM | SW-620 > 100 µM | BT-549 > 100 µM | U-251 > 100 µM | Hs-578T > 100 µM

Nc1cc(OCC2CCCCC2)nc(N)n1
inactive: HL-60 > 100 µM | LOX IMVI > 100 µM | OVCAR-5 > 100 µM | MDA-MB-435 > 100 µM | CAKI-1 > 100 µM | HOP-62 > 100 µM | K562 > 100 µM | RXF 393 > 100 µM | NCI/ADR-RES > 100 µM | SF-295 > 100 µM | NCI-H460 > 100 µM | IGROV-1 67.9 µM | M14 > 100 µM | NCI-H522 > 100 µM | UO-31 > 100 µM | SW-620 > 100 µM | BT-549 > 100 µM | U-251 > 100 µM | Hs-578T > 100 µM

CC(=O)O[C@H]1CC2C(C3CCC(C(C)CCC(N)=O)[C@]31C)[C@H](OC(C)=O)C[C@@H]1CC3(CC[C@]21C)OOC1(CC[C@]2(C)C4C[C@H](OC(C)=O)[C@]5(C)C(C(C)CCC(N)=O)CCC5C4[C@H](OC(C)=O)C[C@@H]2C1)OO3 (stereo not given in full)
inactive: HL-60 1.45 µM | LOX IMVI 1.4 µM | OVCAR-5 1.69 µM | MDA-MB-435 1.4 µM | CAKI-1 1.88 µM | HOP-62 2.01 µM | K562 1.76 µM | RXF 393 1.61 µM | NCI/ADR-RES 2.09 µM | SF-295 1.53 µM | NCI-H460 1.69 µM | IGROV-1 1.69 µM | M14 1.95 µM | NCI-H522 2.18 µM | UO-31 1.13 µM | SW-620 2.63 µM | BT-549 1.2 µM | U-251 1.6 µM | Hs-578T 2.17 µM

O=C(CCc1cccc(O)c1)NCCc1cccc(OCc2ccccc2)c1
inactive: HL-60 28.4 µM | LOX IMVI 15.6 µM | OVCAR-5 24.7 µM | MDA-MB-435 14.9 µM | CAKI-1 26.9 µM | HOP-62 15.3 µM | K562 20.5 µM | RXF 393 19.7 µM | NCI/ADR-RES 18.3 µM | SF-295 16.7 µM | NCI-H460 15.6 µM | IGROV-1 8.93 µM | M14 16.2 µM | NCI-H522 17.1 µM | UO-31 8.93 µM | SW-620 21.3 µM | BT-549 16.1 µM | U-251 16.5 µM | Hs-578T 16.4 µM

Source: ChEMBL document CHEMBL1201862, “PubChem BioAssay data set” (2004)
